Molecular target: Streptococcus thermophilus glucokinase (GlcK) DGCC7710 variant E275K, strain DSM32587 (DGCC12534), SEQ ID NO: 22 (Streptococcus thermophilus, UniProt Q5M4Y5, E275K)
Conditions: substrate glucose (0, 5, 10, 15, 20 mM); 1 mM ATP; pH 7.2; 30° C.; crude extract; mean of three independent experiments
Protocol: A fresh overnight culture of the Streptococcus thermophilus strain to be assayed in M17 containing 30 g/L lactose is obtained and used to inoculate at 1% (vol/vol) 10 ml of fresh M17 30 g/L lactose. Cells are harvested by centrifugation (6000 g, 10 min, 4° C.) at a 600 nm optical density (OD600) of 0.8+/−0.2, washed in 5 ml cold GLCK buffer (5 mM MgCl2, 10 mM K2HPO4/KH2PO4 [pH 7.2]), and resuspended in 500 μl cold GLCK buffer. EDTA-free protease inhibitors “cOmplete™” (Roche, supplier reference 04693132001) is added in GLCK buffer as described by the provider. […] Total protein content is determined by using the FLUKA Protein Quantification Kit-Rapid (ref 51254). The glucokinase activity in the cell extracts is determined spectrophotometrically by a glucose-6-phosphate dehydrogenase (G-6PDH, EC1.1.1.49): NADPH-coupled assay (Porter et al., 1982), essentially as described by Pool et al. (2006). […] The optical density at 340 nm is measured for 5 minutes by using a Synergy HT multi-detection microplate reader (BIO-TEK). […]
A fresh overnight culture of a Streptococcus thermophilus strain in M17 containing 30 g/L lactose was obtained and used to inoculate at 1% (vol/vol) 10 ml of fresh M17 30 g/L lactose. […] Total protein content was determined by using the FLUKA Protein Quantification Kit-Rapid (ref 51254). […]

Sequence of Streptococcus thermophilus glucokinase (GlcK) DGCC7710 variant E275K, strain DSM32587 (DGCC12534), SEQ ID NO: 22 (Q5M4Y5 entry or part of it E275K): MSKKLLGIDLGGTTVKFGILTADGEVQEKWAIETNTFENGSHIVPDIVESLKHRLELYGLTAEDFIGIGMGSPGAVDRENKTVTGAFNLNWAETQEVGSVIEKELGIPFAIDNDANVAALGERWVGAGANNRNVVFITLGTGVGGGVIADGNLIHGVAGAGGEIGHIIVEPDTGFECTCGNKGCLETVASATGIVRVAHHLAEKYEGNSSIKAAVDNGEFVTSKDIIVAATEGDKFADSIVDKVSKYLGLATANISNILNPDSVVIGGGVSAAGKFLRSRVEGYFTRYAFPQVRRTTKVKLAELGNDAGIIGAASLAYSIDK

SMILES: OC[C@H]1OC(O)[C@H](O)[C@@H](O)[C@@H]1O (stereo partly shown) [glucose]
- Vmax Glucokinase: 914 U/g total protein extract
